ChEMBL document CHEMBL1201862, “PubChem BioAssay data set” (2004)
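All cell lines were grown in 96-well plates and treated with compound for 48 hours. Abbreviation: GI50, concentration required for 50% inhibition of growth.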 Active and inactive are the calls of the source. Cut-off read from the data, not from the text of the source: active = GI50 up to about 1.1 µM and inactive = higher.

Legend:
Assay in all cases: NCI tumour cell line growth inhibition, 48 h
NCI-H460 = test system: NCI-H460
SN12C = test system: SN12C
COLO 205 = test system: COLO 205
RXF 393 = test system: RXF 393
HOP-62 = test system: HOP-62
A549 = test system: A549
HOP-92 = test system: HOP-92
RPMI-8226 = test system: RPMI-8226
BT-549 = test system: BT-549
LOX IMVI = test system: LOX IMVI
IGROV-1 = test system: IGROV-1
SNB-19 = test system: SNB-19
CCRF-CEM = test system: CCRF-CEM
SW-620 = test system: SW-620
HCC 2998 = test system: HCC 2998
SR = test system: SR
OVCAR-5 = test system: OVCAR-5
NCI-H226 = test system: NCI-H226
A498 = test system: A498

Measured: GI50

O=c1oc2c(ccc3ccccc32)cc1C1=CSC2=NCCN12
inactive: NCI-H460 36.7 µM | SN12C 42.4 µM | COLO 205 50 µM | RXF 393 33.5 µM | HOP-62 35.8 µM | A549 27.1 µM | HOP-92 24.4 µM | RPMI-8226 42.6 µM | BT-549 26.2 µM | LOX IMVI 49.7 µM | IGROV-1 32.7 µM | SNB-19 38.6 µM | CCRF-CEM 30.5 µM | SW-620 29.7 µM | HCC 2998 3.82 µM | SR 34.4 µM

O=[N+]([O-])c1cccc(-c2ncc3c(n2)-c2ccccc2C3)c1
inactive: NCI-H460 > 100 µM | SN12C > 100 µM | COLO 205 > 100 µM | OVCAR-5 > 100 µM | RXF 393 95.1 µM | A549 > 100 µM | HOP-92 > 100 µM | NCI-H226 > 100 µM | RPMI-8226 > 100 µM | BT-549 > 100 µM | IGROV-1 53.2 µM | SNB-19 30.3 µM | CCRF-CEM > 100 µM | SW-620 > 100 µM | SR > 100 µM

CSc1nc2c(c(N(C)C)n1)C(O)n1c(nc3ccccc31)S2 (configuration not stated)
inactive: NCI-H460 73.5 µM | SN12C > 100 µM | COLO 205 > 100 µM | OVCAR-5 > 100 µM | RXF 393 21.3 µM | A498 > 100 µM | HOP-62 23 µM | A549 > 71.9 µM | HOP-92 43.3 µM | NCI-H226 > 100 µM | RPMI-8226 > 100 µM | BT-549 67 µM | LOX IMVI 9.38 µM | IGROV-1 30.2 µM | SNB-19 25.4 µM | CCRF-CEM > 100 µM | SW-620 > 100 µM | HCC 2998 > 100 µM

C/C(=N\Nc1ccc([N+](=O)[O-])cc1[N+](=O)[O-])c1ccc2ccccc2n1
inactive: NCI-H460 33 µM | SN12C > 100 µM | COLO 205 > 100 µM | OVCAR-5 > 100 µM | RXF 393 > 100 µM | A549 57.5 µM | HOP-92 > 100 µM | NCI-H226 88.1 µM | RPMI-8226 > 100 µM | BT-549 53.6 µM | IGROV-1 28.1 µM | SNB-19 20 µM | SW-620 > 100 µM | SR 97.9 µM

Cc1cc(OCc2nnc3sc(NC(=O)c4ccccc4)nn23)ccc1Cl
inactive: NCI-H460 39.1 µM | SN12C 30.8 µM | COLO 205 53.5 µM | OVCAR-5 56.8 µM | RXF 393 30.6 µM | A498 27.2 µM | HOP-62 20.1 µM | A549 33.1 µM | HOP-92 17.4 µM | NCI-H226 > 100 µM | RPMI-8226 26.7 µM | BT-549 41.7 µM | LOX IMVI 30.1 µM | IGROV-1 25.4 µM | SNB-19 33.9 µM | CCRF-CEM 43.3 µM | SW-620 > 100 µM | HCC 2998 26.7 µM

COc1ccc(/N=N/c2c(O)ccc3ccccc23)cc1
inactive: SN12C > 100 µM | COLO 205 > 100 µM | OVCAR-5 17.5 µM | RXF 393 41.2 µM | HOP-62 13.8 µM | A549 17.9 µM | HOP-92 19.6 µM | NCI-H226 17.7 µM | BT-549 27.4 µM | LOX IMVI 49.2 µM | IGROV-1 5.47 µM | CCRF-CEM > 100 µM | SW-620 86.1 µM | SR 14.8 µM

OCCSCCCSCCO
inactive: NCI-H460 34.8 µM | SN12C > 100 µM | COLO 205 > 100 µM | OVCAR-5 > 100 µM | HOP-62 > 100 µM | A549 > 100 µM | HOP-92 27.1 µM | BT-549 > 100 µM | LOX IMVI > 100 µM | IGROV-1 > 100 µM | SNB-19 > 100 µM | CCRF-CEM 36.8 µM | SW-620 > 100 µM | HCC 2998 > 100 µM | SR 39.9 µM

CCOC(=O)C(C)c1nc2ccc(C(F)(F)F)cc2[nH]c1=O (configuration not stated)
inactive: NCI-H460 84.9 µM | SN12C > 100 µM | COLO 205 > 100 µM | OVCAR-5 > 100 µM | RXF 393 64.3 µM | A498 34 µM | HOP-62 > 100 µM | A549 73.5 µM | HOP-92 43.9 µM | NCI-H226 73.6 µM | RPMI-8226 28.9 µM | BT-549 42 µM | LOX IMVI 66.2 µM | SNB-19 > 100 µM | CCRF-CEM 77.8 µM | SW-620 > 100 µM | HCC 2998 65.2 µM

CCOC(=O)P(=O)(O)c1ccc(N(C)Cc2ccccc2)cc1
inactive: SN12C > 100 µM | COLO 205 > 100 µM | OVCAR-5 > 100 µM | A498 > 100 µM | HOP-62 > 100 µM | A549 > 100 µM | HOP-92 > 100 µM | NCI-H226 > 100 µM | RPMI-8226 > 100 µM | BT-549 > 100 µM | LOX IMVI > 100 µM | IGROV-1 > 100 µM | SNB-19 > 100 µM | CCRF-CEM > 100 µM | SW-620 > 100 µM | HCC 2998 > 100 µM | SR > 100 µM

CC1(c2sccc2Cl)CC(c2sccc2Cl)=C(C#N)C(=C(C#N)C#N)N1 (configuration not stated)
inactive: NCI-H460 19 µM | SN12C 20.2 µM | COLO 205 23.1 µM | OVCAR-5 22.3 µM | RXF 393 16.4 µM | A498 18 µM | HOP-62 19.3 µM | A549 24.7 µM | RPMI-8226 36.1 µM | BT-549 17.8 µM | LOX IMVI 19.2 µM | IGROV-1 23 µM | SNB-19 18.3 µM | CCRF-CEM 38.4 µM | SW-620 18.8 µM | HCC 2998 14.5 µM

CCCCC1C=Cn2c(=O)oc3c(OC(C)C)c(OC(C)C)c(O)c1c32 (configuration not stated)
inactive: NCI-H460 15.4 µM | SN12C 20.5 µM | COLO 205 16.3 µM | OVCAR-5 17.2 µM | A498 17.1 µM | HOP-62 20.7 µM | A549 17.2 µM | HOP-92 14.3 µM | NCI-H226 14 µM | BT-549 14.3 µM | LOX IMVI 14.3 µM | SNB-19 18.2 µM | CCRF-CEM 8.49 µM | SW-620 13.9 µM

O=C(O)c1nc2cc(C(F)(F)F)ccc2[nH]c1=O
inactive: NCI-H460 > 100 µM | SN12C > 100 µM | COLO 205 > 100 µM | OVCAR-5 > 100 µM | A498 > 100 µM | HOP-62 > 100 µM | A549 > 100 µM | HOP-92 > 100 µM | NCI-H226 > 100 µM | RPMI-8226 > 100 µM | BT-549 > 100 µM | LOX IMVI > 100 µM | IGROV-1 > 100 µM | SNB-19 > 100 µM | CCRF-CEM > 100 µM | SW-620 > 100 µM | HCC 2998 > 100 µM | SR > 100 µM

Nc1nc(Cl)cc(NCC2(CO)CCC2)n1
inactive: NCI-H460 > 100 µM | SN12C > 100 µM | COLO 205 > 100 µM | OVCAR-5 > 100 µM | RXF 393 > 100 µM | HOP-62 > 100 µM | A549 > 100 µM | HOP-92 > 100 µM | NCI-H226 > 100 µM | RPMI-8226 > 100 µM | BT-549 > 100 µM | LOX IMVI > 100 µM | IGROV-1 > 100 µM | SNB-19 > 100 µM | CCRF-CEM > 100 µM | SW-620 > 100 µM | HCC 2998 > 100 µM | SR > 100 µM

c1ccc(CNc2nncc3[nH]cnc23)cc1
inactive: SN12C > 100 µM | COLO 205 > 100 µM | OVCAR-5 > 100 µM | A498 > 100 µM | HOP-62 > 100 µM | A549 > 100 µM | HOP-92 69.8 µM | NCI-H226 > 100 µM | RPMI-8226 > 100 µM | BT-549 > 100 µM | LOX IMVI 88.9 µM | IGROV-1 > 100 µM | CCRF-CEM > 100 µM | SW-620 > 100 µM | HCC 2998 > 100 µM | SR > 100 µM

Cc1ccc(/N=N/C(=O)NNc2ccc(C)c([N+](=O)[O-])c2)cc1[N+](=O)[O-]
inactive: NCI-H460 28.6 µM | SN12C 31.4 µM | OVCAR-5 30.1 µM | A498 14.7 µM | HOP-62 20.8 µM | A549 28.8 µM | NCI-H226 51.9 µM | RPMI-8226 19.9 µM | BT-549 30.8 µM | LOX IMVI 17.3 µM | IGROV-1 17.7 µM | SNB-19 36.3 µM | CCRF-CEM 19.2 µM | SW-620 41 µM | HCC 2998 17.4 µM | SR 18.9 µM

COC(=O)CNC(=O)c1cc(C)cc2c1Oc1c(cc(C)cc1C(=O)NCC(=O)OC)S2
inactive: SN12C 57.8 µM | COLO 205 28.4 µM | OVCAR-5 > 100 µM | RXF 393 29.6 µM | HOP-62 > 100 µM | A549 37.6 µM | HOP-92 22.3 µM | NCI-H226 > 100 µM | RPMI-8226 40 µM | BT-549 > 100 µM | LOX IMVI 96.4 µM | IGROV-1 > 100 µM | SNB-19 > 100 µM | CCRF-CEM 60.1 µM | SW-620 > 100 µM | HCC 2998 38.5 µM | SR 31 µM

CC1(C)C(N2CCOCC2)CS1(=O)=O (configuration not stated)
inactive: NCI-H460 > 10 µM | SN12C > 10 µM | COLO 205 > 10 µM | OVCAR-5 > 10 µM | RXF 393 > 10 µM | A498 > 10 µM | HOP-62 > 10 µM | A549 > 10 µM | HOP-92 > 10 µM | NCI-H226 > 10 µM | RPMI-8226 > 10 µM | BT-549 > 10 µM | LOX IMVI > 10 µM | IGROV-1 > 10 µM | SNB-19 > 10 µM | CCRF-CEM > 10 µM | SW-620 > 10 µM | HCC 2998 > 10 µM
